Results taken from patent US10562909B2, “Fused quadracyclic compounds, compositions and uses thereof” (Tabomedex Biosciences, LLC, priority 2016, dated 2020).

target: MAPKAPK2 (Homo sapiens, UniProt P49137); experiment: MK2 Enzymatic Assay; assay type: biochemical; conditions: 0.5 nM MAPKAPK2, 3 μM ATP, 2 μM Ser/Thr4 peptide, 23° C., values given as concentration bins
Experimental: Briefly, 5 μL of 2× (4 μM) 100% phosphorylation peptide was delivered into the control wells of a 384-well assay plate. 5 μL of 2× (1 nM) MAPKAPK2 and 2× peptide (4 μM) mixture in assay buffer was dispensed to remaining columns of assay plate using Eppendorf electronic multiple channel pipette. The assay plate was incubated for 20 minutes. 5 μL of 2× ATP (6 μM) in assay buffer was dispensed to each well and then the assay plate was lightly centrifuged. The assay plate was incubated for an additional 120 minutes.
5 μL of development reagent A was dispensed to all wells using Eppendorf electronic multiple channel pipette. After incubating the development reaction for 120 min, plates were read on a Perkin Elmer Envision instrument.
Percent phosphorylation was calculated using the following formula:
[formula] Where • C100%=Average Coumarin emission signal of the 100% Phos. Control • C0%=Average Coumarin emission signal of the 0% Phos. Control • F100%=Average Fluorescein emission signal of the 100% Phos. Control • F0%=Average Flurescein emission signal of the 0% Phos. Control

MAPKAPK2, sequence (P49137 whole entry, species assumed): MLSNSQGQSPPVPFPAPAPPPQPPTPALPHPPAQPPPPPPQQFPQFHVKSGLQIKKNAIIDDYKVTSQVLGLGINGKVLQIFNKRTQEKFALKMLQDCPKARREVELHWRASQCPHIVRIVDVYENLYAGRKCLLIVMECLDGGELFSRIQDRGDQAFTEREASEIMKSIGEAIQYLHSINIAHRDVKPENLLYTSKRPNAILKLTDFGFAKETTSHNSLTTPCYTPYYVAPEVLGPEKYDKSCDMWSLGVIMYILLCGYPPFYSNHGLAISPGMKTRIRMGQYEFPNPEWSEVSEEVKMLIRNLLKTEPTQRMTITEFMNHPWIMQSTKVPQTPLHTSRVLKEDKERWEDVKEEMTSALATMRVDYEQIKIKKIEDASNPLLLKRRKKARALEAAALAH

SMILES | IC50 [nM]
CN(C)C[C@H]1CN(c2ccc3c(c2)Cn2cc(-c4ccc(C#N)cc4)cc2-c2nccn2-3)C[C@H]1O [Compound 128, 4-(7-((3S,4S)-3-((dimethylamino)methyl)-4-hydroxypyrrolidin-1-yl)-9H-benzo[e]imidazo[2,1-c]pyrrolo[1,2-a][1,4]diazepin-12-yl)benzonitrile] | 50 to 100
CN(C)C[C@@H]1CN(c2ccc3c(c2)Cn2cc(-c4ccc(C#N)cc4)cc2-c2nccn2-3)C[C@@H]1O [Compound 129, 4-(7-((3R,4R)-3-((dimethylamino)methyl)-4-hydroxypyrrolidin-1-yl)-9H-benzo[e]imidazo[2,1-c]pyrrolo[1,2-a][1,4]diazepin-12-yl)benzonitrile] | < 50
CN(C)[C@@H]1CN(c2ccc3c(c2)Cn2cc(-c4ccc(C#N)cc4)cc2-c2nccn2-3)C[C@H]1O [Compound 130, 4-(7-((3R,4R)-3-(dimethylamino)-4-hydroxypyrrolidin-1-yl)-9H-benzo[e]imidazo[2,1-c]pyrrolo[1,2-a][1,4]diazepin-12-yl)benzonitrile] | < 50
CN(C)[C@H]1CN(c2ccc3c(c2)Cn2cc(-c4ccc(C#N)cc4)cc2-c2nccn2-3)C[C@@H]1O [Compound 131, 4-(7-((3S,4S)-3-(dimethylamino)-4-hydroxypyrrolidin-1-yl)-9H-benzo[e]imidazo[2,1-c]pyrrolo[1,2-a][1,4]diazepin-12-yl)benzonitrile] | < 50
CN(C)[C@H]1CN(c2ccc3c(c2)Cn2cc(-c4ccc(C#N)cc4)cc2-c2nccn2-3)C[C@H]1O [Compound 133, 4-(7-((3S,4R)-3-(dimethylamino)-4-hydroxypyrrolidin-1-yl)-9H-benzo[e]imidazo[2,1-c]pyrrolo[1,2-a][1,4]diazepin-12-yl)benzonitrile] | < 50
CN(C)[C@@H]1CN(c2ccc3c(c2)Cn2cc(-c4ccc(C#N)cc4)cc2-c2nccn2-3)C[C@@H]1O [Compound 134, 4-(7-((3R,4S)-3-(dimethylamino)-4-hydroxypyrrolidin-1-yl)-9H-benzo[e]imidazo[2,1-c]pyrrolo[1,2-a][1,4]diazepin-12-yl)benzonitrile] | < 50
C[C@H](CO)NC[C@@H]1CCN(c2ccc3c(c2)Cn2cc(-c4ccc(C#N)cc4)cc2-c2nccn2-3)C1 [Compound 135, 4-(7-((S)-3-((((R)-1-hydroxypropan-2-yl)amino)methyl)pyrrolidin-1-yl)-9H-benzo[e]imidazo[2,1-c]pyrrolo[1,2-a][1,4]diazepin-12-yl)benzonitrile] | < 50
C[C@H](CO)NC[C@H]1CCN(c2ccc3c(c2)Cn2cc(-c4ccc(C#N)cc4)cc2-c2nccn2-3)C1 [Compound 136, 4-(7-((R)-3-((((R)-1-hydroxypropan-2-yl)amino)methyl)pyrrolidin-1-yl)-9H-benzo[e]imidazo[2,1-c]pyrrolo[1,2-a][1,4]diazepin-12-yl)benzonitrile] | < 50
CN(C)C[C@H]1CN(c2ccc3c(c2)Cn2cc(-c4ccc(C#N)cc4)cc2-c2nccn2-3)C[C@@H]1O [Compound 137, 4-(7-((3S,4R)-3-((dimethylamino)methyl)-4-hydroxypyrrolidin-1-yl)-9H-benzo[e]imidazo[2,1-c]pyrrolo[1,2-a][1,4]diazepin-12-yl)benzonitrile] | < 50
CN(C)C[C@@H]1CN(c2ccc3c(c2)Cn2cc(-c4ccc(C#N)cc4)cc2-c2nccn2-3)C[C@H]1O [Compound 138, 4-(7-((3R,4S)-3-((dimethylamino)methyl)-4-hydroxypyrrolidin-1-yl)-9H-benzo[e]imidazo[2,1-c]pyrrolo[1,2-a][1,4]diazepin-12-yl)benzonitrile] | < 50
N#Cc1ccc(-c2cc3n(c2)Cc2cc(N4CC[C@@H](CN5CCC(O)CC5)C4)ccc2-n2ccnc2-3)cc1 [Compound 142, (S)-4-(7-(3-((4-hydroxypiperidin-1-yl)methyl)pyrrolidin-1-yl)-9H-benzo[e]imidazo[2,1-c]pyrrolo[1,2-a][1,4]diazepin-12-yl)benzonitrile] | < 50
N#Cc1ccc(-c2cc3n(c2)Cc2cc(N4CC[C@H](CN5CCC(O)CC5)C4)ccc2-n2ccnc2-3)cc1 [Compound 143, (R)-4-(7-(3-((4-hydroxypiperidin-1-yl)methyl)pyrrolidin-1-yl)-9H-benzo[e]imidazo[2,1-c]pyrrolo[1,2-a][1,4]diazepin-12-yl)benzonitrile] | < 50
CN(C)C1CN(c2ccc3c(c2)Cn2cc(-c4ccc(C#N)cc4)cc2-c2nnnn2-3)C1 [Compound 235, 4-(7-(3-(dimethylamino)azetidin-1-yl)-9H-benzo[e]pyrrolo[1,2-a]tetrazolo[5,1-c][1,4]diazepin-12-yl)benzonitrile] | 100 to 200
CN1CC2(CCN(c3ccc4c(c3)Cn3cc(-c5ccc(C#N)cc5)cc3-c3nnnn3-4)C2)C1 [Compound 240, 4-(7-(2-methyl-2,6-diazaspiro[3.4]octan-6-yl)-9H-benzo[e]pyrrolo[1,2-a]tetrazolo[5,1-c] [1,4]diazepin-12-yl)benzonitrile] | < 50

Second part, the compound after the results:

IC50 [nM] | SMILES
< 50 | CC(C)(CO)NC[C@@H]1CCN(c2ccc3c(c2)Cn2cc(-c4ccc(C#N)cc4)cc2-c2nccn2-3)C1 [Compound 141, (S)-4-(7-(3-(((1-hydroxy-2-methylpropan-2-yl)amino)methyl)pyrrolidin-1-yl)-9H-benzo[e]imidazo[2,1-c]pyrrolo[1,2-a][1,4]diazepin-12-yl)benzonitrile]
100 to 200 | CN[C@@H]1CCN(c2ccc3c(c2)Cn2c(cc(-c4ccc(C#N)cc4)c2Cl)-c2nncn2-3)C1 [Compound 166, (R)-4-(11-chloro-7-(3-(methylamino)pyrrolidin-1-yl)-9H-benzo[e]pyrrolo[1,2-a][1,2,4]tri-azolo[3,4-c][1,4]diazepin-12-yl)benzonitrile]
50 to 100 | CN[C@H]1CCN(c2ccc3c(c2)Cn2c(cc(-c4ccc(C#N)cc4)c2Cl)-c2nncn2-3)C1 [Compound 167, (S)-4-(11-chloro-7-(3-(methylamino)pyrrolidin-1-yl)-9H-benzo[e]pyrrolo[1,2-a][1,2,4]tri-azolo[3,4-c][1,4]diazepin-12-yl)benzonitrile]
100 to 200 | CN1CC2(CCN(c3ccc4c(c3)Cn3c(cc(-c5ccc(C#N)cc5)c3Cl)-c3nncn3-4)C2)C1 [Compound 168, 4-(11-chloro-7-(2-methyl-2,6-diazaspiro[3.4]octan-6-yl)-9H-benzo[e]pyrrolo[1,2-a][1,2,4]triazolo[3,4-c][1,4]diazepin-12-yl)benzonitrile]
< 50 | N#Cc1ccc(-c2cc3n(c2Cl)Cc2cc(N4CC[C@@H](CN)C4)ccc2-n2cnnc2-3)cc1 [Compound 169, (S)-4-(7-(3-(aminomethyl)pyrrolidin-1-yl)-11-chloro-9H-benzo[e]pyrrolo[1,2-a][1,2,4]tri-azolo[3,4-c][1,4]diazepin-12-yl)benzonitrile]
50 to 100 | CN(C)C[C@@H]1CCN(c2ccc3c(c2)Cn2c(cc(-c4ccc(C#N)cc4)c2Cl)-c2nncn2-3)C1 [Compound 170, (S)-4-(11-chloro-7-(3-((dimethylamino)methyl)pyrrolidin-1-yl)-9H-benzo[e]pyrrolo[1,2-a] [1,2,4]triazolo[3,4-c][1,4]diazepin-12-yl)benzonitrile]
50 to 100 | N#Cc1ccc(-c2cc3n(c2Cl)Cc2cc(N4CC[C@H](CN)C4)ccc2-n2cnnc2-3)cc1 [Compound 171, (R)-4-(7-(3-(aminomethyl)pyrrolidin-1-yl)-11-chloro-9H-benzo[e]pyrrolo[1,2-a][1,2,4]tri-azolo[3,4-c][1,4]diazepin-12-yl)benzonitrile]
< 50 | CNC[C@@H]1CCN(c2ccc3c(c2)Cn2c(cc(-c4ccc(C#N)cc4)c2Cl)-c2nncn2-3)C1 [Compound 173, (S)-4-(11-chloro-7-(3-((methylamino)methyl)pyrrolidin-1-yl)-9H-benzo[e]pyrrolo[1,2-a][1,2,4]triazolo[3,4-c][1,4]diazepin-12-yl)benzonitrile]
50 to 100 | Cc1nnc2n1-c1ccc(N3CC[C@@H](CN(C)C)C3)cc1Cn1cc(-c3ccc(C#N)cc3)cc1-2 [Compound 228, 4-(7-((S)-3-((dimethylamino)methyl)pyrrolidin-1-yl)-3-methyl-9H-benzo[e]pyrrolo[1,2-a] [1,2,4]triazolo[3,4-c][1,4]diazepin-12-yl)benzonitrile]
50 to 100 | Cc1nnc2n1-c1ccc(N3CC[C@H](CN(C)C)C3)cc1Cn1cc(-c3ccc(C#N)cc3)cc1-2 [Compound 229, 4-(7-((R)-3-((dimethylamino)methyl)pyrrolidin-1-yl)-3-methyl-9H-benzo[e]pyrrolo[1,2-a] [1,2,4]triazolo[3,4-c][1,4]diazepin-12-yl)benzonitrile]
50 to 100 | Cc1nnc2n1-c1ccc(N3CC[C@H](N)C3)cc1Cn1cc(-c3ccc(C#N)cc3)cc1-2 [Compound 230, 4-(7-((S)-3-aminopyrrolidin-1-yl)-3-methyl-9H-benzo[e]pyrrolo[1,2-a][1,2,4]triazolo[3,4-c][1,4]diazepin-12-yl)benzonitrile]
< 50 | CNCC1CCN(c2ccc3c(c2)Cn2cc(-c4ccc(C#N)cc4)cc2-c2nnnn2-3)C1 (stereo not drawn) [Compound 239, 4-(7-(3-((methylamino)methyl)pyrrolidin-1-yl)-9H-benzo[e]pyrrolo[1,2-a]tetrazolo[5,1-c] [1,4]diazepin-12-yl)benzonitrile]
< 50 | CN(C)C[C@@H]1CCN(c2ccc3c(c2)Cn2cc(-c4ccc(C#N)cc4)cc2-c2nnnn2-3)C1 [Compound 241, (S)-4-(7-(3-((dimethylamino)methyl)pyrrolidin-1-yl)-9H-benzo[e]pyrrolo[1,2-a]tetrazolo[5,1-c][1,4]diazepin-12-yl)benzonitrile]
